How the values were obtained:
DU-145 = experiment: MTT cytotoxicity assay, DU-145; assay type: cell-based, human; conditions: mean ± SD
Text: (§1) In this investigation, two experimental groups of cancer cell lines were employed: human prostate carcinoma cells lacking prostate-specific membrane antigen (PSMA) and androgen receptor independence (DU-145 and HTB-81™), alongside human prostate carcinoma cells (PC-3 and CRL-1435™). The control group comprised non-cancerous human fibroblasts (MRC-5 and CCL-171™). All cell lines utilized in this study were procured from the American Type Culture Collection (ATCC, Manassas, VA, United States). The cells were maintained in a complete medium containing high-glucose DMEM, supplemented with 10% fetal bovine serum and 200 mM L-glutamine (reagents sourced from Sigma-Aldrich, St. Louis, MO, United States). Cultivation of the cells was conducted in 25 cm^2 flasks (Thermo Fisher Scientific, Waltham, MA, United States) at 37°C under conditions of absolute humidity and a 5% CO2 atmosphere. The cytotoxic effects of three newly synthesized Pd(II) complexes were assessed on DU-145, PC-3, and MRC-5 cell lines using the MTT assay. For comparison, the cytotoxicity of cisplatin, a clinically established chemotherapeutic agent, was also evaluated across all cell lines. Cells were harvested during their exponential growth phase, counted, and seeded at a density of 5 × 10^3 cells per well in 96-well culture plates. […] The treated cells were incubated under identical conditions (37°C, 5% CO2, absolute humidity) for durations of 24, 48, and 72 h. After incubation, the medium was removed, and an MTT solution was added to each well. The cells were then incubated for an additional 2 h to facilitate the reduction of thiazolyl blue tetrazolium bromide in the MTT solution. Subsequently, the MTT solution was carefully removed, and the resulting formazan crystals were solubilized in DMSO. […] All experiments were performed in triplicate and repeated across three independent runs. Cell viability was calculated as a percentage by dividing the absorbance of treated cells (minus blank absorbance) by the average absorbance of untreated control cells (minus blank absorbance) and multiplying by 100. % of the viable cells=absorbance of treated cell−absorbance of blank / absorbance of untreated cell−absorbance of blank * 100 […] This analysis was performed using Microsoft Office Excel 2010, leveraging its curve-fitting capabilities to determine precise inhibitory concentrations.

MRC-5 = experiment: MTT cytotoxicity assay, MRC-5 fibroblasts; assay type: cell-based, human; conditions: mean ± SD
Text: as §1

PC-3 = experiment: MTT cytotoxicity assay, PC-3; assay type: cell-based, human; conditions: mean ± SD
Text: as §1

DU-145 cells [1] = experiment: Mitochondrial membrane potential by JC-10 staining; assay type: cell-based, human; conditions: DU-145, IC50 of complex, 48 h
Method: JC-10 gathers in the mitochondria of living cells, forming red fluorescence aggregates. On the other hand, JC-10 is also present in a monomeric cytosolic form and dyes cells green in necrotic and apoptotic cells. Mitochondrial membrane potential was assessed using the dye JC-10. DU-145 cells were seeded at a density of 2 × 10^4 cells per well in 24-well cell culture plates and incubated in complete DMEM medium at 37°C with 5% CO2 for 24 h. […] The cells were treated for 20 min with 2.5 μM JC-10 dye in warm PBS. JC-10 accumulation in cells was evaluated using a Gramma Libero FLUO500T trinocular inverted fluorescence microscope. We used the 525/590 nm fluorescence emission ratio for our quantification analysis. We captured images using the 2020 S-EYE Setup Microscope camera and the S-EYE_Setup-1.6.0.11 software. The ImageJ program was used to analyse the images.

[2] = Stability assay in PBS by UV-Vis spectra; assay type: physicochemical; conditions: ∼10^–5 M, less than 0.7% DMSO, UV-Vis after 0, 24 and 48 h
Method: The complex used for the testing was dissolved in the minimal amount of DMSO (dimethylsulfoxide) possible and diluted with PBS of ∼10^–5 M in concentration and less than 0.7% DMSO. UV-Vis spectra were recorded after 0, 24 and 48 h in the range 200–600 nm. Absorption spectra were recorded on UV–Vis Perkin–Elmer Lambda 35 spectrophotometer equipped with water thermostated cell.

[3] = Stability in DMSO by UV-Vis spectra; assay type: physicochemical; conditions: UV-Vis 200–600 nm after t = 0, 24, and 48 h
Method: UV-Vis spectra were recorded in DMSO as a solvent, at room temperature, and the data of the absorption wavelength maxima (λ max) are given in Table 3 and Figure 3. […] Further, two more bands are attributed to the ligand 1b, the medium intensity π → π* and very weak and broad n→π* transition of the imine group. Upon coordination, the π → π* band of the imine group decreases in intensity, while the new band at 393 nm, attributed to Ligand-to-Metal Charge Transfer (LMCT), appears ([Felicio et al., 2001]; [Hussain et al., 2019]). The stability of Schiff base metal complexes is a key factor influencing their performance during biological evaluations. Unstable complexes, prone to hydrolysis or degradation, may lead to reduced efficacy, altered mechanisms of action, or false-positive/negative outcomes. Palladium (II), typically adopting a square-planar geometry ([Kostić et al., 2003]), forms stable complexes with bidentate Schiff base ligands, but its coordination environment can be sensitive to ligand exchange. […] In order to determine the stability of selected complex 2b in DMSO, a series of UV-Vis spectra in the range of 200–600 nm were recorded after t = 0, 24, and 48 h (Supplementary Figure SI17) ([Marjanović et al., 2023]).

DU-145 cells [4] = experiment: Clonogenic assay; assay type: cell-based, human; conditions: DU-145, four concentrations, 2 weeks colony formation
Method: In this assay ([Franken et al., 2006]), cells are seeded at low densities and incubated for 2 weeks to allow colony formation, with colonies defined as clusters of ≥50 cells. Treated and untreated cells are compared to assess survival fractions (SF), calculated by normalizing the plating efficiency (PE) of treated cells to that of controls. Colonies are fixed with 6% glutaraldehyde, stained with 0.5% crystal violet, and colonies were quantified using ImageJ software version 1.54 with a standardized macro. Images were first converted to 8-bit grayscale, and background noise was reduced using the “Subtract Background” function. Thresholding was applied to isolate colonies, and the “Analyze Particles” tool was used to count colonies based on defined size and circularity parameters. Only colonies with an area corresponding to ≥50 cells and a circularity range of 0.3–1.0 were included. Overlapping or merged colonies were excluded unless distinct borders were visually discernible. All image processing steps were applied consistently across samples to ensure reproducibility. Data are represented as dose-response survival curves.
Plating efficiency is calculated by the following formula: PE=Number of colonies/Number of cells seeded×100%
Survival fraction is calculated when all plating efficiencies are calculated according to the formula: SF=PEtreated/PEcontrol

CT-DNA = experiment: DNA viscosity measurement; assay type: binding, calf; conditions: 0.01 mM DNA in PBS, [2c]/[DNA] 0.1-1
Method: All chemicals were used without purification, and all of them are commercially available. ^1H NMR and ^13C NMR spectra were recorded in DMSO-d6 as a solvent with a Bruker Ascend 400 (400 MHz) spectrometer. Chemical shifts are given in parts per million (δ) down from tetramethylsilane as the internal standard. For elemental analyses (C, H, O, N) were used Elementar Vario MICRO elemental analyzer. IR spectra were obtained on Perkin Elmer FT-IR spectrometer, two equipped with a DTGS detector. Mass spectra were recorded at 6546 LC/Q-TOF (Agilent, Santa Clara, CA, SAD) equipped with Jet Stream ion source and connected with 1,290 Infinity II HPLC (Agilent, Santa Clara, CA, AD). Data were collected every second in the mass area 100–1,000 Da. Molar conductance of the Pd(II) complexes was measured on freshly prepared 10^–3 M solutions in DMSO at room temperature using Crison EC-Meter basic 30+conductivity cell. The viscosity of the DNA solution was measured in the absence and presence of increasing amounts of 2c. To the 0.01 mM DNA solution in PBS, a corresponding ratio of examinated compound was added at ratio [2c]/[DNA]: 0.1; 0.2; 0.3; 0.4; 0.5; 0.6; 0.7; 0.8; 0.9 and 1. Data are presented as a plot of (η/η0)1/3 vs. ratio of [2c]/[DNA], where η is the DNA viscosity in the presence of the compound, η0 is the viscosity of DNA in buffer alone.

Row | SMILES | IC50 (DU-145; DU-145, 24 h drug exposure) | IC50 (DU-145; DU-145, 48 h drug exposure) | IC50 (DU-145; DU-145, 72 h drug exposure) | IC50 (MRC-5; MRC-5, 24 h drug exposure) | IC50 (MRC-5; MRC-5, 48 h drug exposure) | IC50 (MRC-5; MRC-5, 72 h drug exposure) | IC50 (PC-3; PC-3, 48 h drug exposure) | IC50 (PC-3; PC-3, 72 h drug exposure) | IC50 (PC-3; PC-3, 24 h drug exposure) | increase of JC-10 green/JC-10 red ratio compared to untreated cells (DU-145 cells [1]) | stability in solution (PBS) [2] | stability in DMSO [3] | long-term antiproliferative effect (survival fraction) (DU-145 cells [4]) | DNA binding mode from viscosity (CT-DNA)
1 | N.N.[Cl][Pt][Cl] [CP, cisplatin, reference compound] | 22.3 ± 2.4 µM | 11.4 ± 1.1 µM | 8.2 ± 0.8 µM | 90.1 ± 9.2 µM | 41.9 ± 4.4 µM | 24.4 ± 0.8 µM | 29.7 ± 3.1 µM | 21.9 ± 2.2 µM | – | – | – | – | – | –
2 | Oc1ccc(CN=Cc2ccccc2[O][Pd][O]c2ccccc2C=NCc2ccc(O)cc2)cc1 [Complex 2a] | 83.6 ± 9.2 µM | 17.5 ± 1.6 µM | 9.3 ± 0.9 µM | 94.3 ± 9.7 µM | 92.4 ± 9.1 µM | 83 ± 8.1 µM | 89.8 ± 8.8 µM | 79.3 ± 7.7 µM | 94.1 ± 9.1 µM | 2.1 fold | – | – | – | –
3 | Oc1ccc(CCN=Cc2ccccc2[O][Pd][O]c2ccccc2C=NCCc2ccc(O)cc2)cc1 [Complex 2b] | 75.9 ± 7.3 µM | 19.2 ± 2.1 µM | 8.7 ± 0.8 µM | 87.7 ± 8.8 µM | 78.5 ± 7.7 µM | 49.2 ± 5.1 µM | 58.6 ± 5.6 µM | 29.1 ± 2.8 µM | 75.2 ± 7.2 µM | 2.9 fold | sufficient stability in solution under physiologically relevant conditions | retaining its structural integrity without signs of ligand displacement or decomposition | – | –
4 | C(=NCCc1c[nH]c2ccccc12)c1ccccc1[O][Pd][O]c1ccccc1C=NCCc1c[nH]c2ccccc12 [Complex 2c] | 48.4 ± 5.1 µM | 11 ± 1.2 µM | 7.1 ± 0.8 µM | 80.7 ± 8.1 µM | 75.6 ± 7.7 µM | 42.3 ± 4.1 µM | 12.5 ± 1.1 µM | 8.6 ± 0.9 µM | 38.4 ± 3.6 µM | 3.2 fold | – | – | most pronounced effect | intercalates very weakly

Source: publication PMC12310718, “Evaluation of newly synthesized schiff base Pd(II) complexes for prostate cancer treatment through in vitro cytotoxicity and molecular mechanistic studies” (Frontiers in Chemistry, 2025)
